Experimental data as given in ChEMBL document CHEMBL1201862, “PubChem BioAssay data set” (2004).
The source made the active and inactive calls.

Key:
[1] = target: Muscarinic acetylcholine receptor M1 (Rattus norvegicus, UniProt P08482); assay: rat M1 positive allosteric modulator potency, dose response, cell-based, calcium mobilization, CHO-K1, ACh EC20 (AID 2425); assay type: functional
[2] = target: Luciferin 4-monooxygenase (Photinus pyralis, UniProt P08659); assay: firefly luciferase enzyme inhibitors, dose response, biochemical, luminescence (AID 1891)
[3] = Luminescence Cell-Based Dose Confirmation HTS to Identify Inhibitors of Platelet Dense Granule Release. [Related pubchem assays: 1663 (Primary HTS), 1678 (Summary of Project)]; assay type: functional
[4] = Fluorescence Cell-Based Dose Response to Identify Inhibitors of Thrombin Receptor-Activating Peptide SFLLRN-Mediated P-Selectin Induction on Platelets. [Related pubchem assays: 1663 (Primary HTS), 1889 (retest at dose ), 1891 (counterscreen), 1678 (Project Summary)]; assay type: functional
[5] = target: T1, Sphingosine 1-phosphate receptor 4 (Homo sapiens, UniProt O95977); assay: Fluorescence dose response cell-based high throughput screening assay for antagonists of the Sphingosine 1-Phosphate Receptor 4 (S1P4). [Related pubchem assays: 1524 (Confirmation in triplicates.), 1510 (Primary screen.)]; assay type: functional
T1 sequence (O95977 whole entry): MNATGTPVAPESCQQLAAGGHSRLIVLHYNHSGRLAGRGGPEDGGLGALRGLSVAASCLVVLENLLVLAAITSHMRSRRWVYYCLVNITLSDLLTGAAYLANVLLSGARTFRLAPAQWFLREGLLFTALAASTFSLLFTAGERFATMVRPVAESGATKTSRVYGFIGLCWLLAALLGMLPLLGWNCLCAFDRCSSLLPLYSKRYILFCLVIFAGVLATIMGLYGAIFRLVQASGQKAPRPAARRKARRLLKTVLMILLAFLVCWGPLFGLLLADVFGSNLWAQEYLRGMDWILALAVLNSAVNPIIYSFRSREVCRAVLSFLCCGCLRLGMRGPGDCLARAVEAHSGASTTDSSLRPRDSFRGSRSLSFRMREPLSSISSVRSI

[6] = target: Sphingosine 1-phosphate receptor 1 (Homo sapiens, UniProt P21453); assay type: functional;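 also: Tango beta-arrestin reporter U2OS cells stimulated with S1P near its EC80; inhibitor potency meaning antagonism of receptor activation by the natural agonist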
CHO = assay: cytotoxicity in TLR9-MyD88 CHO cells, dose response, cytotoxicity control for TLR9-MyD88 binding inhibitor project, cell-based, luminescence (AID 588339); assay type: functional, hamster; conditions: Cricetulus griseus;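 also: CHO cells stably coexpressing TLR9 and MyD88 fusions from primary screen; compound exposure lasted 48 hours before viability readout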
[7] = target: T2, Replicative DNA helicase DnaB (Mycobacterium tuberculosis, UniProt P9WMR3); assay: DnaB intein splicing inhibitors, dose response, biochemical, cell-free fluorescence (AID 449749); assay type: functional
T2 sequence (P9WMR3 whole entry): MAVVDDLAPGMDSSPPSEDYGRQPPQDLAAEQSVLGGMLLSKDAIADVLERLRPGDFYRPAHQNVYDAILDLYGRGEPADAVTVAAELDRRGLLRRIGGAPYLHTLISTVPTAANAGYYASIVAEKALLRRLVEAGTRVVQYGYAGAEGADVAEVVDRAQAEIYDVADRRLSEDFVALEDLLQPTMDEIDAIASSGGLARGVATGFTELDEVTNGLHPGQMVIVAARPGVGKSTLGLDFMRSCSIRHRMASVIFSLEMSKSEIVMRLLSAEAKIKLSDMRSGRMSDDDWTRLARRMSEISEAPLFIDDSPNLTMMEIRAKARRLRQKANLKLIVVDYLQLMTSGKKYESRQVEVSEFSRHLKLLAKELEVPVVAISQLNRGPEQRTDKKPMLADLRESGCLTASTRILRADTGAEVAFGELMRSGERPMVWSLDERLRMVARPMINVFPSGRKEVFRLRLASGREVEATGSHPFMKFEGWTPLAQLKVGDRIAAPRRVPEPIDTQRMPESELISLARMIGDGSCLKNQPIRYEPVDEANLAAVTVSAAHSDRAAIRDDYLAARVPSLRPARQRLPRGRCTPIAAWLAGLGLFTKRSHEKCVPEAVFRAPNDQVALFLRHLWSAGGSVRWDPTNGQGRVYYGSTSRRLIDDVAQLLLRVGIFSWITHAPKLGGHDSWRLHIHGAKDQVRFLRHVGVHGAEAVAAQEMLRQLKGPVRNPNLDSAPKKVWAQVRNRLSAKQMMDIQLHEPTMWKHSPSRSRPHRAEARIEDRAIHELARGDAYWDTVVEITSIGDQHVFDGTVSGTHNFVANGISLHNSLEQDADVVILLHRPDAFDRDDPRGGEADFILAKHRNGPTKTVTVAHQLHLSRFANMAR

Protein RecA = target: T3, Protein RecA (Mycobacterium tuberculosis, UniProt P9WHJ3); assay: Fluorescence Cell-Free Homogeneous Dose Retest to Identify Inhibitors of RecA-Intein Splicing Activity. [Related pubchem assays (depositor defined):AID2097, AID2223, AID489010, AID492950]; assay type: functional
T3 sequence (P9WHJ3 whole entry): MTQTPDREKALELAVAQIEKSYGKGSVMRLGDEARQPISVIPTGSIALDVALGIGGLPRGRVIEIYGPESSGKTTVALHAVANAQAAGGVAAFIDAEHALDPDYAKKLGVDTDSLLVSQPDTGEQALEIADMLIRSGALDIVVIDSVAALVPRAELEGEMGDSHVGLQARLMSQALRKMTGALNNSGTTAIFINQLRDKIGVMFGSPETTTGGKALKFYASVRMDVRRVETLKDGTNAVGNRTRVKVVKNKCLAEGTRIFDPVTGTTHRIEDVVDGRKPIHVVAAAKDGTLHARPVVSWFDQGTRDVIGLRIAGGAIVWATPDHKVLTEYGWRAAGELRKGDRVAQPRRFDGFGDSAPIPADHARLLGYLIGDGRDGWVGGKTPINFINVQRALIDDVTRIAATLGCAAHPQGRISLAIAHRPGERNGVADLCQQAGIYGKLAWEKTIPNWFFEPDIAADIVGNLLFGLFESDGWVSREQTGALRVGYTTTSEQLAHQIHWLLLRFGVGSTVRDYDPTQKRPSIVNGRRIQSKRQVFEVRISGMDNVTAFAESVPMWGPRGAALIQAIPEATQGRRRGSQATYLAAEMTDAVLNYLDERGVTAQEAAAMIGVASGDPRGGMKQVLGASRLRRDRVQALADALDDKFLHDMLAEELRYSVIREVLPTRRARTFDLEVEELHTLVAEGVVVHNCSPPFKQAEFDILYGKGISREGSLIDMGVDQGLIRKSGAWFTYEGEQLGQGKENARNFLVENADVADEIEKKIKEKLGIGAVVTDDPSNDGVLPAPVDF

Beta Lactamase = Beta Lactamase (Pseudomonas aeruginosa, UniProt Q932Y6); assay: beta-lactamase reporter inhibitor potency, dose response, artefact control for TLR9-MyD88 binding inhibitor project, BLA reporter cells, FRET fluorescence (AID 588341); assay type: cell-based;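 also: cell based assay in CHO-K1 cells stably expressing beta-lactamase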
A-375 [8] = assay: MITF: Counter assay: A375 proliferation Measured in Cell-Based System Using Plate Reader - 2084-03_Inhibitor_Dose_DryPowder_Activity. [Related pubchem assays (depositor defined):AID488944]; assay type: functional; conditions: Homo sapiens
A-375 [9] = assay: A375 melanoma cell viability reduction, dose response, counter-screen for MITF modulator project, cherry-pick samples, set 2 (AID 540335); assay type: functional, cell-based; conditions: Homo sapiens
Paired box protein Pax-8 = Paired box protein Pax-8 (Homo sapiens, UniProt Q06710); assay: inhibitors of PAX8-driven TPO luciferase reporter, dose response, RMG-I cells, cherry-pick (AID 687027); assay type: functional, cell-based;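 also: luciferase reporter driven by Pax8 target thyroperoxidase promoter measured by SteadyGlo luminescence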
[10] = target: T4, Heat shock factor protein 1 (Mus musculus, UniProt P38532); assay: inhibition of MG132-induced HSE-luciferase signal, confirmation, cell-based, NIH3T3, luminescence, dose retest (AID 2382); assay type: functional;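 also: NIH3T3 fibroblasts with HSF1-driven luciferase reporter stressed by proteasome inhibitor MG132; luminescence from HSF1-driven luciferase expression after 8 hours of MG132 stress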
T4 sequence (P38532 whole entry): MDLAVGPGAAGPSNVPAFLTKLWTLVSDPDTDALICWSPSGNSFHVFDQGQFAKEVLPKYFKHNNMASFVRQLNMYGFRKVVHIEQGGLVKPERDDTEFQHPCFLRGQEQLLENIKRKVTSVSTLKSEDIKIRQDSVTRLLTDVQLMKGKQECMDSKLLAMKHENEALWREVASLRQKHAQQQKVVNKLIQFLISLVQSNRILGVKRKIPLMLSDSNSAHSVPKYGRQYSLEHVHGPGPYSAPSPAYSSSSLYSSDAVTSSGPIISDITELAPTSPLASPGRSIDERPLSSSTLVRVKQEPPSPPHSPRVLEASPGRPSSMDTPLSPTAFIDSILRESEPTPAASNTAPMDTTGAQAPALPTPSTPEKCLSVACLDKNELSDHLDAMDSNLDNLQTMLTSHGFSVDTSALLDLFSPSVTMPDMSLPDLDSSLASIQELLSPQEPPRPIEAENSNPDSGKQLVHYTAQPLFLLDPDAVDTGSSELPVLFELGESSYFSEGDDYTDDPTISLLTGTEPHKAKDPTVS

[11] = target: Solute carrier family 12 member 2/member 5 (Homo sapiens, UniProt P55011+Q9H2X9); assay: KCC2 and NKCC1 inhibition by rubidium flux, cell-based, NKCC1 counter-screen (AID 1734); assay type: functional, HEK293
Bcl-2-related protein A1 [12] = target: T5, Bcl-2-related protein A1 (Mus musculus, UniProt Q07440); assay: Bfl-1 inhibitors, primary screen, biochemical, fluorescence polarization, FITC-Bid, mouse (AID 432)
T5 sequence (Q07440 whole entry): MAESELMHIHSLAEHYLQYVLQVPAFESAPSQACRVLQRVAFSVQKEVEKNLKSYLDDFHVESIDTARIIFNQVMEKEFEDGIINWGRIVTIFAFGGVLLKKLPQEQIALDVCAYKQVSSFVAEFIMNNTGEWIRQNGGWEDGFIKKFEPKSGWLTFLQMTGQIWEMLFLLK

Bcl-2-related protein A1 [13] = target: T5, Bcl-2-related protein A1; assay: Bfl-1 inhibitors blocking BH3 peptide binding, confirmation, biochemical, TR-FRET, mouse Bfl-1 (AID 621);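 also: TR-FRET binding of GST-Bfl-1 to FITC-labelled Bid peptide via terbium antibody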
[14] = target: T6, Sentrin-specific protease 1 (Homo sapiens, UniProt Q9P0U3); assay: potency of human SENP1 inhibitors, dose response, biochemical, kinetic FRET (AID 651697); assay type: functional; conditions: read-out: IC50_Mean
T6 sequence (Q9P0U3 whole entry): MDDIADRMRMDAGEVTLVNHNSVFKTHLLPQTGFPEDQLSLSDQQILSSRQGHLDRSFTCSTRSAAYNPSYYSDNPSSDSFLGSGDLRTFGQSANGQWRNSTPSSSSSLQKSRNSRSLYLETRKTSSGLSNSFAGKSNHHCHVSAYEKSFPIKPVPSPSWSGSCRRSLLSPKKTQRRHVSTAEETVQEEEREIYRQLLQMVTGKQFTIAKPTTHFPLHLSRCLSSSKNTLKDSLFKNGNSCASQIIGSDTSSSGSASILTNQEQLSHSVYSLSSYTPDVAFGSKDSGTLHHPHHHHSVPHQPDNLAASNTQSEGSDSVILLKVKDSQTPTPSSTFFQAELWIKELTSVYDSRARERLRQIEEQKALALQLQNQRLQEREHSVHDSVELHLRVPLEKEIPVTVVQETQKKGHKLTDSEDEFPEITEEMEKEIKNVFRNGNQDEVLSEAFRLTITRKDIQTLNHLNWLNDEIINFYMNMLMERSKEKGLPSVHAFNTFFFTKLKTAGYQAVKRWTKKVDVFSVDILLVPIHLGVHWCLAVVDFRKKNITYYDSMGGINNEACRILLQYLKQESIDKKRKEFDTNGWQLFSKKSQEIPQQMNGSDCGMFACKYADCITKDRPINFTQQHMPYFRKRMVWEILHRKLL

[15] = target: T6, Sentrin-specific protease 1; assay: Dose response confirmation of small molecule inhibitors of the catalytic domain of the SUMO protease, SENP1 in a FRET assay.; assay type: functional; conditions: read-out: IC50_Mean
Cytochrome P450 2C19 = Cytochrome P450 2C19 (Homo sapiens, UniProt P33261); assay: qHTS Assay for Inhibitors and Substrates of Cytochrome P450 2C19. [Related pubchem assays: 410 ]; assay type: ADME; conditions: read-out: Potency
[16] = cytotoxicity in HPDE-C7 cells, cell-based, fluorescence, HTS (AID 430); assay type: functional; conditions: Homo sapiens
[17] = cytotoxicity in KRAS-transformed pancreatic duct cells, primary screen, cell-based, fluorescence, HTS (AID 431); assay type: functional; conditions: Homo sapiens;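 also: cell line used: HPDE-C7K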

Beta Lactamase, sequence (Q932Y6 whole entry): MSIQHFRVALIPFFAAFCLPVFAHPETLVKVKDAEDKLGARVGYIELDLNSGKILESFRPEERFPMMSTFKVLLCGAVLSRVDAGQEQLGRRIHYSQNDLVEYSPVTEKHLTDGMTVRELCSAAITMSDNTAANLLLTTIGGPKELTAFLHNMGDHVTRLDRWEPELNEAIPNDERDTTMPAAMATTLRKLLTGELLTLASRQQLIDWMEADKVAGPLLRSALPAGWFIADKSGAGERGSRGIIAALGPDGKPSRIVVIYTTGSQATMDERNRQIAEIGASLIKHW
Muscarinic acetylcholine receptor M1, sequence (P08482 whole entry): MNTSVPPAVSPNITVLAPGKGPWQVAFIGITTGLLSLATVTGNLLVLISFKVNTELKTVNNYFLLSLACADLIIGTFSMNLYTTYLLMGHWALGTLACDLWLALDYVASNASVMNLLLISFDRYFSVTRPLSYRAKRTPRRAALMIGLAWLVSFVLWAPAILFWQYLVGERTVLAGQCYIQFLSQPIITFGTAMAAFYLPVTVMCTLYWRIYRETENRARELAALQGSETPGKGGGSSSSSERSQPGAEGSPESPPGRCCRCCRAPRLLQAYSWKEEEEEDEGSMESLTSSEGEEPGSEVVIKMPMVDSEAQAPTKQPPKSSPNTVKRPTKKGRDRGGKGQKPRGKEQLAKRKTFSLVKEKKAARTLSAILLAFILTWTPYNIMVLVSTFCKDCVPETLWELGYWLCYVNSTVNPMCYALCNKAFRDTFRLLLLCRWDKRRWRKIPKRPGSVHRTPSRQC
Paired box protein Pax-8, sequence (Q06710 whole entry): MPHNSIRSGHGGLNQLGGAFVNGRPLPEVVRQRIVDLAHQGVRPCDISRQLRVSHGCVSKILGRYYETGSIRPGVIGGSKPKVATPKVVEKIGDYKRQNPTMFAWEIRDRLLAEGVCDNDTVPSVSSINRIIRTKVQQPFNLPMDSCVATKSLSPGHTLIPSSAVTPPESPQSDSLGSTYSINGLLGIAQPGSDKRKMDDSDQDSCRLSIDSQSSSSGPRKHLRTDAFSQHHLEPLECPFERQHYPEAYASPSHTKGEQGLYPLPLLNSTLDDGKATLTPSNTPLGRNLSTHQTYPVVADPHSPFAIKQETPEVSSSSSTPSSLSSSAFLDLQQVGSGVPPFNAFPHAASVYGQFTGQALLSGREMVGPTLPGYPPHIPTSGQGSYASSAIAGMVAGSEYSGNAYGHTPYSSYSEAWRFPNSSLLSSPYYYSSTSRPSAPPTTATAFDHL
Luciferin 4-monooxygenase, sequence (P08659 whole entry): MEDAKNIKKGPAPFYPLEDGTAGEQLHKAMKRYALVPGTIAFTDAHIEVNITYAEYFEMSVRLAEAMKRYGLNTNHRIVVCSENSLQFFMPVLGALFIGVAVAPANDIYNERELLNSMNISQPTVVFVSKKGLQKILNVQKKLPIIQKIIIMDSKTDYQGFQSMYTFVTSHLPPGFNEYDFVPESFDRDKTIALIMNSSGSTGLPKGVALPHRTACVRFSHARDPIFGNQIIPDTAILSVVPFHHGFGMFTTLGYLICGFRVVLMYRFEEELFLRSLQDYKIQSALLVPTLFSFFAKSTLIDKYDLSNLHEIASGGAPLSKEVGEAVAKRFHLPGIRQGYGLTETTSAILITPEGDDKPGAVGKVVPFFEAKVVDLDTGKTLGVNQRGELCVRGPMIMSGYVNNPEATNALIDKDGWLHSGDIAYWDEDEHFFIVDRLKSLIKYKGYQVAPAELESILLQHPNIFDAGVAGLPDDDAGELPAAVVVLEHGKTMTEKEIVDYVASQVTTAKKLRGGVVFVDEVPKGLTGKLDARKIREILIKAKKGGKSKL
Cytochrome P450 2C19, sequence (P33261 whole entry): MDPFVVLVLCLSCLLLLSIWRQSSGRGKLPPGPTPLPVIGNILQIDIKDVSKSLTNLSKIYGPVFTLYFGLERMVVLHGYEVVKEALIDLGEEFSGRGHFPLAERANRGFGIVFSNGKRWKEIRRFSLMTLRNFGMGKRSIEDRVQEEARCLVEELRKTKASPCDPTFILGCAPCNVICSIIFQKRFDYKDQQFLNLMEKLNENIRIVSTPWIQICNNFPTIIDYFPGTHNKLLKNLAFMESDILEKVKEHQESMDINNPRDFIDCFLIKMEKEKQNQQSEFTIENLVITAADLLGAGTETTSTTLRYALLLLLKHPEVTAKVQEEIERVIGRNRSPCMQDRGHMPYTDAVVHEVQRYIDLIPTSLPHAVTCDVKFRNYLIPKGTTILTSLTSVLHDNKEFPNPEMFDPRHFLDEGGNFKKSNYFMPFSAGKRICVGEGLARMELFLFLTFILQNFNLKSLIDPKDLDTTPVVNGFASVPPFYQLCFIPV
Sphingosine 1-phosphate receptor 1, sequence (P21453 whole entry, the tested form may be a part): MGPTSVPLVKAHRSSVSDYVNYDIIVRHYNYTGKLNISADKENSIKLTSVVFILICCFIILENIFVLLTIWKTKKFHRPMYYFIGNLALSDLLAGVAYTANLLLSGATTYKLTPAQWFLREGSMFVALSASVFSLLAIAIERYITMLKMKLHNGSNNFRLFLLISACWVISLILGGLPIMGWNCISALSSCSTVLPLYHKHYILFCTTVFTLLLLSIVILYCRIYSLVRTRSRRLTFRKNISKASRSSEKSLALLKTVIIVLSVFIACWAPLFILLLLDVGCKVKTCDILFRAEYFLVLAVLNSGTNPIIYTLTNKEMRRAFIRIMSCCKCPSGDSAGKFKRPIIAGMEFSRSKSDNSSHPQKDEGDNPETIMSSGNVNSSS

## Cn1cc(-c2cc(F)c(CN3C(=O)C(=O)c4ccccc43)c(F)c2)cn1
[1]
  EC50: 0.885 µM (active)

## CS(=O)(=O)c1ncc(Cl)c(C(=O)Nc2ccc3ccccc3c2)n1
[2]
  EC50: > 112 µM (not active)
[3]
  EC50: 3.6 µM (active)
[4]
  EC50: < 30 µM (active)
[5]
  IC50: 2.07 µM (active)
[6]
  IC50: > 5.53 µM (not active)
CHO
  IC50: 1.95 µM (active)
[7]
  AC50: 2.49 µM (active)
Protein RecA
  EC50: 4.84 µM (active)
Beta Lactamase
  IC50: 7.13 µM (active)
A-375 [8]
  AC50: > 35 µM (active)
A-375 [9]
  AC50: > 35 µM (active)
Paired box protein Pax-8
  AC50: 7.81 µM (active)

## Cc1csc(NC(=O)CSc2ccc(-c3ccccc3)nn2)n1
[10]
  EC50: > 195 µM (not active)
[11]
  IC50: 0.56 µM (active)

## Nc1ccc(C2CCCc3nonc32)c2nonc12 (configuration not stated)
Bcl-2-related protein A1 [12]
  IC50: > 100 µM (not active)
Bcl-2-related protein A1 [13]
  IC50: > 100 µM (not active)
[14]
  IC50: 42 µM (inactive)
[15]
  IC50: 39.4 µM (inactive)

## Cc1nc2sccn2c(=O)c1CCN1CCC(=C(c2ccccc2)c2ccc(F)cc2)CC1
Cytochrome P450 2C19
  AC50: 15.8 µM (inconclusive)
[16]
  EC50: 18.3 µM (active)
[17]
  EC50: 17.4 µM (active)
